Laboratory results: patent US11339167B2, “Substituted piperidines as kinase inhibitors” (Daewoong Pharmaceutical Co., Ltd., priority 2017, dated 2022)
Like-named read-outs stand apart in the source and are kept apart here.

Experiments:
human JAK3 = human JAK3 (Homo sapiens (Human), UniProt P52333); test: JAK3 kinase inhibitory activity, ADP Glo kinase assay; format: biochemical; settings: recombinant purified human JAK3, ATP 5 uM, Poly(Glu4,Tyr1) peptide, 1 hour 30° C.
Procedure: JAK3 and BTK kinases inhibitory activities were measured for the compounds prepared in the Examples through in vitro analysis on the ADP Glow (Glo) platform.
Specifically, the inhibitory activities against JAK3 and BTK kinase were measured using a JAK3 kinase assay kit (Promega, V9441) and a BTK kinase assay kit (Promega, V9071) which were purchased from Promega. […] After incubation (30° C.) for 1 hour, equivalent volume (25 uL per reaction) of ADP Glo was added and incubated (30° C.) for 40 minutes at room temperature. Then, a kinase detection reagent (50 uL per reaction) was added and incubated (30° C.) for 30 minutes at room temperature. The kinase activity was measured by chemiluminescence according to the instructions of ADP Glow kinase assay kit, and the inhibitory activity of the compounds according to the present disclosure was calculated.

human BTK = human BTK (Homo sapiens (Human), UniProt Q06187); test: BTK kinase inhibitory activity, ADP Glo kinase assay
JAK3 kinase = JAK3 kinase (Mus musculus (Mouse), UniProt Q62137); test: JAK3-mediated cell assay (HT-2/IL-2 assay), STAT5 phosphorylation HTRF; format: cell-based; settings: STAT5 phosphorylation induced by IL-2 (20 ng/ml, 10 minutes) in HT-2 cells, compound treatment 30 minutes
Procedure: The inhibitory activities against JAK3 kinase at the cellular level were measured for the compounds prepared in the Examples through in vitro analysis of STAT5 phosphorylation induced by IL-2 stimulation in HT-2 cells. Specifically, STAT5 phosphorylation was analyzed using HTRF® phospho-STAT5 (Tyr694) assay kit (Cisbio, 64AT5PEG), which was purchased from Cisbio. HT-2 cells were cultured for 2 hours in growth factor-free medium. The cultured HT-2 cells were dispensed into 96-well plates by 50 ul so as to be a density of 2.5×10^5 cells/well. The compounds prepared in the previous Examples were prepared so as to be finally a 0.3% DMSO aqueous solution, and HT-2 cells was treated with the compounds for 30 minutes. After the compound treatment, IL-2 was prepared so as to be finally a concentration of 20 ng/ml, and HT-2 cells was treated for 10 minutes. The cells were then disrupted by treating lysis buffers for 30 minutes. The level of STAT5 phosphorylation was measured according to the instructions of HTRF® phospho-STAT5 assay kit, and the inhibitory activity of the compounds according to the invention was calculated. For the analysis of the results of each compound, Microsoft Excel was used, and IC50 values were calculated by SigmaPlot software.

[1] = read-out: BTK IC50, recombinant purified human BTK, ATP 10 uM, Poly(Glu4,Tyr1) peptide, 1 hour 30° C.

human JAK3, sequence (P52333 whole entry): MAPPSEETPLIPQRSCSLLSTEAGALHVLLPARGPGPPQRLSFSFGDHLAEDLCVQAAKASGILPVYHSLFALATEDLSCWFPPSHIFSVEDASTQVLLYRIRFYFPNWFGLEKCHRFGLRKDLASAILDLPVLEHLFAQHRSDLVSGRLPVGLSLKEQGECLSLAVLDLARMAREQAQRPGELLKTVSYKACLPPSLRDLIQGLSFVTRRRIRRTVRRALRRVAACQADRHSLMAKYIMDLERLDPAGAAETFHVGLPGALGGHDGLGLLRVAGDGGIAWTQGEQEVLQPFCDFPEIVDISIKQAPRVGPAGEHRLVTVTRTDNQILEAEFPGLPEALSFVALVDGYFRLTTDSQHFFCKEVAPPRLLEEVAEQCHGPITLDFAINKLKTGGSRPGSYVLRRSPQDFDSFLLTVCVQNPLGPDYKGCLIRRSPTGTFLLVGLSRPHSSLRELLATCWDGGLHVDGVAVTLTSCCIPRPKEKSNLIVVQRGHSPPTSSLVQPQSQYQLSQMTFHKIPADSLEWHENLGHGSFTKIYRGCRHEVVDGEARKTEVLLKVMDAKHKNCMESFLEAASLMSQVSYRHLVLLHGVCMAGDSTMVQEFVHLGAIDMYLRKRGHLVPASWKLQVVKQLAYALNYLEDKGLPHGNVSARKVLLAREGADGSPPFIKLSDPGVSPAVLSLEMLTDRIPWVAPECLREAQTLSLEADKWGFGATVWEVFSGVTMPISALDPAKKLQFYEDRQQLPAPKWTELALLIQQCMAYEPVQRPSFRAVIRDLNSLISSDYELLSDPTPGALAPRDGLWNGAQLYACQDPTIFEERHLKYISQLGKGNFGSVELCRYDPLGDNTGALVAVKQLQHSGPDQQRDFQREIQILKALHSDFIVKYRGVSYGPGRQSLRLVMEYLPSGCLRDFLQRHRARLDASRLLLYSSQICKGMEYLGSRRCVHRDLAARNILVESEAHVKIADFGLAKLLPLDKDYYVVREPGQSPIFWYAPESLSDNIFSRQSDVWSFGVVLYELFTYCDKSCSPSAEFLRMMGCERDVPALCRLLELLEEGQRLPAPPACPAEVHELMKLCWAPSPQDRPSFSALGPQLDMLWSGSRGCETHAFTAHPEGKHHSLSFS
human BTK, sequence (Q06187 whole entry): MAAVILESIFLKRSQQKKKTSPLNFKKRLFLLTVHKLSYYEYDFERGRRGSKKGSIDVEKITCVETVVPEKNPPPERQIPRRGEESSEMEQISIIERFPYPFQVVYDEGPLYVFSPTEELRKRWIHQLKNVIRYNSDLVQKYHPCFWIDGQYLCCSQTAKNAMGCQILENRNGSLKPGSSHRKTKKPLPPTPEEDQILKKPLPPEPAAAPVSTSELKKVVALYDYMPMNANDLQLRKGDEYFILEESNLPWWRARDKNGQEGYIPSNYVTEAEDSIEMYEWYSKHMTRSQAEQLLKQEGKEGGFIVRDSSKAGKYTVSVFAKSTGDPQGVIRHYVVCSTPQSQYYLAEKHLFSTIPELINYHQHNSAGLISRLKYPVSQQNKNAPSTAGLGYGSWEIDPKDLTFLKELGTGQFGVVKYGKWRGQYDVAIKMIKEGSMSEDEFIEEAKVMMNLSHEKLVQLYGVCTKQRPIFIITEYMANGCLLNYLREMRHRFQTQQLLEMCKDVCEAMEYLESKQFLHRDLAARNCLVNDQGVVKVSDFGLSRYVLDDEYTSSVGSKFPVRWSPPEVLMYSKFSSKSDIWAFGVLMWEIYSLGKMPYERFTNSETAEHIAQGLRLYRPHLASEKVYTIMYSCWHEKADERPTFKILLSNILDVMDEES
JAK3 kinase, sequence (Q62137 whole entry): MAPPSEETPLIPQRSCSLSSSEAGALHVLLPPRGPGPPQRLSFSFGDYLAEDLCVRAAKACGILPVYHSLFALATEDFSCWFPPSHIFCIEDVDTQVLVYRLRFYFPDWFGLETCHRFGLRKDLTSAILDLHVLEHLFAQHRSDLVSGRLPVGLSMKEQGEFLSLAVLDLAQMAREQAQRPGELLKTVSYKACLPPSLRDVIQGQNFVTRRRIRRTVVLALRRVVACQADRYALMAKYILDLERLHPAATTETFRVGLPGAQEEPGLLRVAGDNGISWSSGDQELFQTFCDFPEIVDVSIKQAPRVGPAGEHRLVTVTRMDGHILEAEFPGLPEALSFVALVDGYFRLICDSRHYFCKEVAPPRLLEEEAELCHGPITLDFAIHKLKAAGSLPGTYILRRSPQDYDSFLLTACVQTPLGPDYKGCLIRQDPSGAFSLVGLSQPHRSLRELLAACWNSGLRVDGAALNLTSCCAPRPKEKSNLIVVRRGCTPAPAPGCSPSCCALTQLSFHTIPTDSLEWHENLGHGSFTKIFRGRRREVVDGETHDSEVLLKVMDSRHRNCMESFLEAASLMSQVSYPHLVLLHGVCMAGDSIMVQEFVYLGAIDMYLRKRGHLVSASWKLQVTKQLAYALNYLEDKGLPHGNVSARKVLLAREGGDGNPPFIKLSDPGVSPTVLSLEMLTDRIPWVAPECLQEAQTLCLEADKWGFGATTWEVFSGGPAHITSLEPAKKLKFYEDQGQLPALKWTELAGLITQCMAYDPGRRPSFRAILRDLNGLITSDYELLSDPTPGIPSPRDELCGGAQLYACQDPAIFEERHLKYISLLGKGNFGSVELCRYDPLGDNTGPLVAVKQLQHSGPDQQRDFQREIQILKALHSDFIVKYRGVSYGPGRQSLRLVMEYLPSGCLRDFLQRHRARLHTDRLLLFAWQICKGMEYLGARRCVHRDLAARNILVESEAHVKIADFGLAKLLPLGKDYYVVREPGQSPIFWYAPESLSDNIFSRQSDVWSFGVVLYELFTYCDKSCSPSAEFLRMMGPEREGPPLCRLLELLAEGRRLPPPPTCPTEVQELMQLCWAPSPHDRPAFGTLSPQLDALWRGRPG

IC50 (human JAK3) [nM]	IC50 (human BTK) [nM]	IC50 (JAK3 kinase) [nM]	IC50 (human BTK; [1]) [nM]	SMILES
0.3	2.4	67.4	–	C=CC(=O)N1CC[C@@H](F)[C@H](Oc2nc(Nc3cnn(CC)c3)nc3[nH]ccc23)C1 (racemic) [Example 1, 1-(trans-3-((2-((1-ethyl-1H-pyrazol-4-yl)amino)-7H-pyrrolo[2,3-d]pyrimidin-4-yl)oxy)-4-fluoropiperidin-1-yl)prop-2-en-1-one]
0.4	4.2	115	–	C=CC(=O)N1CC[C@H](F)[C@H](Oc2nc(Nc3cnn(CC)c3)nc3[nH]ccc23)C1 (racemic) [Example 4, 1-(cis-3-((2-((1-ethyl-1H-pyrazol-4-yl)amino)-7H-pyrrolo[2,3-d]pyrimidin-4-yl)oxy)-4-fluoropiperidin-1-yl)prop-2-en-1-one]
0.3	2.1	72.3	–	C=CC(=O)N1CC[C@@H](F)[C@H](Oc2nc(Nc3cnn(CC)c3)nc3[nH]cc(Cl)c23)C1 (racemic) [Example 9, 1-(trans-3-((5-chloro-2-((1-ethyl-1H-pyrazol-4-yl)amino)-7H-pyrrolo[2,3-d]pyrimidin-4-yl)oxy)-4-fluoropiperidin-1-yl)prop-2-en-1-one]
0.3	2.5	96	–	C=CC(=O)N1CC[C@@H](F)[C@H](Oc2nc(Nc3cc(C)ns3)nc3[nH]cc(Cl)c23)C1 (racemic) [Example 11, 1-(trans-3-((5-chloro-2-((3-methylisothiazol-5-yl)amino)-7H-pyrrolo[2,3-d]pyrimidin-4-yl)oxy)-4-fluoropiperidin-1-yl)prop-2-en-1-one]
0.2	–	101	1.5	C=CC(=O)N1CC[C@@H](F)[C@@H](Oc2nc(Nc3cnn(CC)c3)nc3[nH]ccc23)C1 [Example 5, 1-((3S,4R)-3-((2-((1-ethyl-1H-pyrazol-4-yl)amino)-7H-pyrrolo[2,3-d]pyrimidin-4-yl)oxy)-4-fluoropiperidin-1-yl)prop-2-en-1-one]
0.2	–	32.3	1.2	C=CC(=O)N1CC[C@H](F)[C@@H](Oc2nc(Nc3cnn(CC)c3)nc3[nH]ccc23)C1 [Example 25, 1-((3S,4S)-3-((2-((1-ethyl-1H-pyrazol-4-yl)amino)-7H-pyrrolo[2,3-d]pyrimidin-4-yl)oxy)-4-fluoropiperidin-1-yl)prop-2-en-1-one]
> 80	–	–	> 400	C=CC(=O)N1CC[C@H](F)[C@H](Oc2nc(Nc3ccc4ncsc4c3)nc3[nH]ccc23)C1 [Example 34, 1-((3R,4S)-3-((2-(benzo[d]thiazol-6-ylamino)-7H-pyrrolo[2,3-d]pyrimidin-4-yl)oxy)-4-fluoropiperidin-1-yl)prop-2-en-1-one]
